Reference: patent US7138361B2, “Herbicidal heterocycles” (E. I. du Pont de Nemours and Company, priority 2000, dated 2006)

What was measured:
Assay type in all cases: in vivo
[1] = system: giant foxtail (Setaria faberii); assay: Test B postemergence; settings: 13 to 15 days
How it was run: (§1)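 Post-treatment, species sat 13–15 days under greenhouse conditions before visual scoring against controls, 0 (no effect) through 100 (complete control). Application preemergence to sown seeds or postemergence at 1- to 4-leaf stage, using a non-phytotoxic solvent/surfactant formulation.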

[2] = system: morning glory (Ipomoea hederacea); assay: Test B postemergence; settings: 13 to 15 days
How it was run: as §1

[3] = system: crabgrass (Digitaria sanguinalis); assay: Test B postemergence; settings: 13 to 15 days
How it was run: as §1

[4] = system: wheat (Triticum aestivum); assay: Test B postemergence; settings: 13 to 15 days
How it was run: as §1

[5] = system: Surinam grass (Brachiaria decumbens); assay: Test B postemergence; settings: 13 to 15 days
How it was run: as §1

[6] = system: cocklebur (Xanthium strumarium); assay: Test B postemergence; settings: 13 to 15 days
How it was run: as §1

[7] = system: velvetleaf (Abutilon theophrasti); assay: Test B postemergence; settings: 13 to 15 days
How it was run: as §1

wild oat (Avena fatua) = assay: Test B postemergence; settings: 13 to 15 days
How it was run: as §1

[8] = system: pigweed (Amaranthus retroflexus); assay: Test B postemergence; settings: 13 to 15 days
How it was run: as §1

corn (Zea mays) [9] = assay: Test B postemergence; settings: 13 to 15 days
How it was run: as §1

[10] = system: barnyardgrass (Echinochloa crus-galli); assay: Test B postemergence; settings: 13 to 15 days
How it was run: as §1

[11] = system: blackgrass (Alopecurus myosuroides); assay: Test B postemergence; settings: 13 to 15 days
How it was run: as §1

[12] = system: lambsquarters (Chenopodium album); assay: Test B postemergence; settings: 13 to 15 days
How it was run: as §1

rice (Oryza saliva) = assay: Test B preemergence
How it was run: as §1

[13] = system: giant foxtail (Setaria faberii); assay: Test B preemergence
How it was run: as §1

[14] = system: morning glory (Ipomoea hederacea); assay: Test B preemergence
How it was run: as §1

[15] = system: crabgrass (Digitaria sanguinalis); assay: Test B preemergence
How it was run: as §1

[16] = system: Surinam grass (Brachiaria decumbens); assay: Test B preemergence
How it was run: as §1

[17] = system: cocklebur (Xanthium strumarium); assay: Test B preemergence; settings: scale 0 to 100, 0 no effect, 100 complete control
How it was run: as §1

[18] = system: velvetleaf (Abutilon theophrasti); assay: Test B preemergence
How it was run: as §1

[19] = system: pigweed (Amaranthus retroflexus); assay: Test B preemergence
How it was run: as §1

corn (Zea mays) [20] = assay: Test B preemergence
How it was run: as §1

[21] = system: barnyardgrass (Echinochloa crus-galli); assay: Test B preemergence
How it was run: as §1

[22] = system: lambsquarters (Chenopodium album); assay: Test B preemergence
How it was run: as §1

[23] = system: smallflower flatsedge (Cyperus difformis); assay: Test C flooded paddy test; settings: for Flatsedge plant response rating: Flooded Paddy, scale 0 to 100, 0 no effect, 100 complete control; for Plant response rating, Flatsedge: scale 0 to 100 (0 no effect, 100 complete control)
How it was run: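 Each species was cultivated to 2 leaves in flooded paddy pots, then treated. After a greenhouse period of 12–14 days, the plants were scored visually relative to controls from 0 (no effect) to 100 (complete control).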

[24] = Rate 125 g/ha, scale 0 (no effect) to 100 (complete control)
[25] = Rate 250 g/ha, scale 0 (no effect) to 100 (complete control)
[26] = Rate 500 g/ha, scale 0 to 100, 0 is no effect, 100 is complete control
[27] = Preemergence, Rate 500 g/ha, scale 0 to 100, 0 no effect, 100 complete control
[28] = preemergence, Rate 62 g/ha, scale of 0 to 100 where 0 is no effect and 100 is complete control, 13 to 15 days
[29] = preemergence, Rate 125 g/ha, scale 0 to 100, 0 no effect, 100 complete control
[30] = preemergence, Rate 250 g/ha, scale 0 to 100, 0 no effect, 100 complete control
[31] = flooded paddy test, Rate 62 g/ha
[32] = flooded paddy test, Rate 125 g/ha

CC1(C)CCc2cn(C3CCN(c4cccc(C(F)(F)F)c4)C3=O)nc21 (stereo not shown) [Compound 10]
Plant response rating, Foxtail, Giant [1, 24]: 0
Plant response rating, Foxtail, Giant [1, 25]: 0
Plant response rating, Foxtail, Giant [1, 26]: 0
Plant response rating, Morningglory [2, 24]: 0
Plant response rating, Morningglory [2, 25]: 0
Plant response rating, Morningglory [2, 26]: 0
Plant response rating, Crabgrass [3, 24]: 0
Plant response rating, Crabgrass [3, 25]: 0
Plant response rating, Crabgrass [3, 26]: 0
Plant response rating, Wheat [4, 24]: 0
Plant response rating, Wheat [4, 25]: 0
Plant response rating, Wheat [4, 26]: 0
Plant response rating, Surinam grass [5, 24]: 0
Plant response rating, Surinam grass [5, 25]: 0
Plant response rating, Surinam grass [5, 26]: 0
Plant response rating, Cocklebur [6, 24]: 0
Plant response rating, Cocklebur [6, 25]: 0
Plant response rating, Cocklebur [6, 26]: 0
Plant response rating, Velvetleaf [7, 24]: 0
Plant response rating, Velvetleaf [7, 25]: 0
Plant response rating, Velvetleaf [7, 26]: 0
Plant response rating, Wild Oat (wild oat (Avena fatua); [24]): 0
Plant response rating, Wild Oat (wild oat (Avena fatua); [25]): 0
Plant response rating, Wild Oat (wild oat (Avena fatua); [26]): 0
Plant response rating, Pigweed [8, 24]: 0
Plant response rating, Pigweed [8, 25]: 0
Plant response rating, Pigweed [8, 26]: 0
Plant response rating, Corn (corn (Zea mays) [9]; [24]): 0
Plant response rating, Corn (corn (Zea mays) [9]; [25]): 0
Plant response rating, Corn (corn (Zea mays) [9]; [26]): 0
Plant response rating, Barnyardgrass [10, 24]: 0
Plant response rating, Barnyardgrass [10, 25]: 0
Plant response rating, Barnyardgrass [10, 26]: 0
Plant response rating, Blackgrass [11, 24]: 0
Plant response rating, Blackgrass [11, 25]: 0
Plant response rating, Blackgrass [11, 26]: 0
Plant response rating, Lambsquarters [12, 24]: 0
Plant response rating, Lambsquarters [12, 25]: 100
Plant response rating, Lambsquarters [12, 26]: 0
Plant response rating, Rice (rice (Oryza saliva); [27]): 0
Plant response rating, Rice (rice (Oryza saliva); [28]): 0
Plant response rating, Rice (rice (Oryza saliva); [29]): 0
Plant response rating, Rice (rice (Oryza saliva); [30]): 0
Plant response rating, Foxtail, Giant [13, 27]: 0
Plant response rating, Foxtail, Giant [13, 28]: 80
Plant response rating, Foxtail, Giant [13, 29]: 0
Plant response rating, Foxtail, Giant [13, 30]: 100
Plant response rating, Morningglory [14, 27]: 0
Plant response rating, Morningglory [14, 28]: 0
Plant response rating, Morningglory [14, 29]: 0
Plant response rating, Morningglory [14, 30]: 0
Plant response rating, Crabgrass [15, 27]: 0
Plant response rating, Crabgrass [15, 28]: 100
Plant response rating, Crabgrass [15, 29]: 0
Plant response rating, Crabgrass [15, 30]: 100
Plant response rating, Surinam grass [16, 27]: 0
Plant response rating, Surinam grass [16, 28]: 20
Plant response rating, Surinam grass [16, 29]: 0
Plant response rating, Surinam grass [16, 30]: 30
Plant response rating, Cocklebur ([17]; Preemergence, Rate 500 g/ha): 0
Plant response rating, Cocklebur ([17]; preemergence, Rate 125 g/ha): 0
Plant response rating, Cocklebur ([17]; preemergence, Rate 250 g/ha): 0
Plant response rating, Velvetleaf [18, 27]: 0
Plant response rating, Velvetleaf [18, 28]: 0
Plant response rating, Velvetleaf [18, 29]: 0
Plant response rating, Velvetleaf [18, 30]: 0
Plant response rating, Pigweed [19, 27]: 0
Plant response rating, Pigweed [19, 28]: 90
Plant response rating, Pigweed [19, 29]: 0
Plant response rating, Pigweed [19, 30]: 100
Plant response rating, Corn (corn (Zea mays) [20]; [27]): 0
Plant response rating, Corn (corn (Zea mays) [20]; [28]): 0
Plant response rating, Corn (corn (Zea mays) [20]; [29]): 0
Plant response rating, Corn (corn (Zea mays) [20]; [30]): 30
Plant response rating, Barnyardgrass [21, 27]: 0
Plant response rating, Barnyardgrass [21, 28]: 0
Plant response rating, Barnyardgrass [21, 29]: 0
Plant response rating, Barnyardgrass [21, 30]: 100
Plant response rating, Lambsquarters [22, 27]: 0
Plant response rating, Lambsquarters [22, 28]: 100
Plant response rating, Lambsquarters [22, 29]: 0
Plant response rating, Lambsquarters [22, 30]: 100
Flatsedge plant response rating ([23]; Rate 250 g/ha): 100
Flatsedge plant response rating ([23]; Rate 500 g/ha): 100
Plant response rating, Flatsedge [23, 31]: 50
Plant response rating, Flatsedge [23, 32]: 80
Plant response rating (scale 0 to 100), Flatsedge ([23]; flooded paddy test, Rate 16 g/ha, visually evaluated after 12 to 14 days, 0 = no effect, 100 = complete control): 30

CC1CCc2cn(C3CCN(c4cccc(C(F)(F)F)c4)C3=O)nc21 (stereo not shown) [Compound 11]
Plant response rating, Foxtail, Giant [1, 24]: 0
Plant response rating, Foxtail, Giant [1, 26]: 0
Plant response rating, Morningglory [2, 24]: 0
Plant response rating, Morningglory [2, 26]: 0
Plant response rating, Crabgrass [3, 24]: 0
Plant response rating, Crabgrass [3, 26]: 0
Plant response rating, Wheat [4, 24]: 0
Plant response rating, Wheat [4, 26]: 0
Plant response rating, Surinam grass [5, 24]: 0
Plant response rating, Surinam grass [5, 26]: 0
Plant response rating, Cocklebur [6, 24]: 0
Plant response rating, Cocklebur [6, 26]: 0
Plant response rating, Velvetleaf [7, 24]: 0
Plant response rating, Velvetleaf [7, 26]: 0
Plant response rating, Wild Oat (wild oat (Avena fatua); [24]): 0
Plant response rating, Wild Oat (wild oat (Avena fatua); [26]): 0
Plant response rating, Pigweed [8, 24]: 0
Plant response rating, Pigweed [8, 26]: 0
Plant response rating, Corn (corn (Zea mays) [9]; [24]): 0
Plant response rating, Corn (corn (Zea mays) [9]; [26]): 0
Plant response rating, Barnyardgrass [10, 24]: 0
Plant response rating, Barnyardgrass [10, 26]: 0
Plant response rating, Blackgrass [11, 24]: 0
Plant response rating, Blackgrass [11, 26]: 0
Plant response rating, Lambsquarters [12, 24]: 0
Plant response rating, Lambsquarters [12, 26]: 0
Plant response rating, Rice (rice (Oryza saliva); [27]): 0
Plant response rating, Rice (rice (Oryza saliva); [29]): 0
Plant response rating, Foxtail, Giant [13, 27]: 0
Plant response rating, Foxtail, Giant [13, 29]: 0
Plant response rating, Morningglory [14, 27]: 0
Plant response rating, Morningglory [14, 29]: 0
Plant response rating, Crabgrass [15, 27]: 0
Plant response rating, Crabgrass [15, 29]: 0
Plant response rating, Surinam grass [16, 27]: 0
Plant response rating, Surinam grass [16, 29]: 0
Plant response rating, Cocklebur ([17]; Preemergence, Rate 500 g/ha): 0
Plant response rating, Cocklebur ([17]; preemergence, Rate 125 g/ha): 0
Plant response rating, Velvetleaf [18, 27]: 0
Plant response rating, Velvetleaf [18, 29]: 0
Plant response rating, Pigweed [19, 27]: 0
Plant response rating, Pigweed [19, 29]: 0
Plant response rating, Corn (corn (Zea mays) [20]; [27]): 0
Plant response rating, Corn (corn (Zea mays) [20]; [29]): 0
Plant response rating, Barnyardgrass [21, 27]: 0
Plant response rating, Barnyardgrass [21, 29]: 0
Plant response rating, Lambsquarters [22, 27]: 0
Plant response rating, Lambsquarters [22, 29]: 0
Flatsedge plant response rating ([23]; Rate 250 g/ha): 90
Flatsedge plant response rating ([23]; Rate 500 g/ha): 100
Plant response rating, Flatsedge [23, 31]: 90
Plant response rating, Flatsedge [23, 32]: 90
